According to ChEMBL document CHEMBL6078624, “Structure-based discovery of a 4,5-Dihydropyrazole-cored PET ligand for imaging of receptor-interacting serine/threonine-protein kinase 1 (RIPK1) in the brain” (Eur J Med Chem, 2024):

Test: Inhibition of TSZ-induced necroptosis in human HT-29 cells by CellTiter-Glo luminescent cell viability assay

O=C(c1ccccn1)N1CCC(C(=O)N2N=CCC2c2cccc(F)c2)CC1 (stereo unspecified) showed an EC50 of 68.2 nM.
